{
  "source": "patent US8802439B2",
  "about": "“Methods for enhancing infectivity of retroviruses” (priority 2009, dated 2014)",
  "key": {"HCV": {"system": "HCV", "assay": "HCV infectivity titer of supernatants from persistently infected HUH-7 cells", "assay_type": "cell-based", "conditions": "PiB 16 μM and 8 μM, 1 hour pre-treatment plus 9 hours at 37° C.", "description": "Cells persistently infected with HCV were treated with vehicle (DMSO), an MTP inhibitor (BMS-200150) capable of inhibiting HCV secretion, or with two doses of PiB (16 μM and 8 μM). After 1 hour of pre-treatment at 37° C., cells were washed with warm PBS and further incubated in normal medium containing the same drugs for an additional 9 hours at 37° C. Cell supernatants containing infectious HCV were collected for infectivity titer determination.\nInfection assays for HCV: Persistently infected cells were treated with vehicle (DMSO), an MTP inhibitor (BMS-200150) capable of inhibiting HCV secretion, or with two doses of PiB (16 μM and 8 μM). After 1 hour of pre-treatment at 37° C., cells were washed with warm PBS and further incubated in normal medium containing the same inhibitors for an additional 9 hours at 37° C. Cell supernatants containing infectious HCV were collected for infectivity titer determination. […] Note that Pin1 is able to block HIV-1 in the HUH-7 cell line used to propagate HCV.\nPersistently infected HUH-7 cells were treated with solvent DMSO (circles), or increasing concentrations of PiB (squares). After 1 hour of pre-treatment cells were washed and further incubated in normal medium containing the same inhibitors for an additional 9 hours at 37° C. Cell supernatants containing infectious HCV were collected for infectivity titer determination."}, "Pin1 PPIase": {"molecular_target": "Pin1 PPIase (Homo sapiens, UniProt Q13526)", "sequence (Q13526 whole entry)": "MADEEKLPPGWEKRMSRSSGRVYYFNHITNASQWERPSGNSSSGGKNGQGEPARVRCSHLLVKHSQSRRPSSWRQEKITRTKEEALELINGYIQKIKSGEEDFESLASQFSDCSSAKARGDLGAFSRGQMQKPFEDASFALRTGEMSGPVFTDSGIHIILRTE", "conditions": "Uchida et al. 2003; cited from earlier work"}, "HIV-1 [1]": {"system": "HIV-1", "assay": "HIV-1 viral production in 293T producer cells, p24 ELISA of supernatants", "assay_type": "cell-based", "conditions": "293T cells transfected with NL4.3; 2.0 μM juglone, 2.0 μM or 10.0 μM PiB", "text": "Plasmids: Laboratory-adapted provirus NL4.3, and the CypA-independent NL4.3 CAi2 were kindly provided by Akio Adachi (Department of Virology, Institute of Health Biosciences, The University of Tokushima Graduate School, JAPAN). Mutant R9G89V was a gift from P. Gallay (TSR1) as were NL4.3-GFP and SIV-GFP (originally Dana Gabuzda, Dana Farber Cancer Institute). NL4.3 A92E was kindly provided by W. Phares (Genetics Unit, Novartis Forschungsinstitut, Vienna, Austria). R9Δgp160 plasmid clone was kindly provided by C. Aiken (Vanderbilt Medical Center). VSV-G (CMV-VSV-G) was kindly provided by D. Trono (École Polytechnique Fédérale de Lausanne). Both bMLV-GFP and nMLV-GFP in the form of pCIG3-N, pCIG3-B as well as pCNCG were kindly provided by J. Stoye (National Institute for Medical Research, UK). Isomerase mutant Pin1 (pFLAG-Pin1R68,69A) and WW-domain mutant Pin1 (pFLAG-Pin1 W34A) were constructed by site-directed mutagenesis. Pseudotyping experiments were performed using DNA constructs encoding the VSV-G generously provided by D. Trono. Human Pin1 was cloned into pFLAG (Sigma-Aldrich) making pFLAG-Pin1. Viruses were produced by transfection of 293T cells using either GeneJuice (Novagen) or calcium phosphate. […] All viruses were harvested 24-48 hours post-transfection and filtered (0.2-μM filter, Steriflip Millipore). […]"}, "[2]": {"system": "other prolyl isomerases such as CypA or FKBP", "conditions": "cited from earlier work"}, "E. coli PPIase, parvulin": {"molecular_target": "E. coli PPIase, parvulin (Escherichia coli, UniProt P0A9L5)", "sequence (P0A9L5 whole entry)": "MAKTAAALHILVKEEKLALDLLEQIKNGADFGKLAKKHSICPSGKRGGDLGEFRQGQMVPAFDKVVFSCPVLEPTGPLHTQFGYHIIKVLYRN", "conditions": "covalent modification of two cysteine residues, slow process; cited from earlier work"}, "HIV-1 [3]": {"system": "HIV-1", "assay": "Single-round infectivity on TZM-bl cells of HIV-1 produced in Pin1-inhibited 293T cells (Galacton-Star galactosidase assay)", "assay_type": "cell-based", "text": "Viral inocula from transfections above were normalized to equal virion particle number via p24 ELISA and used to infect target CD4^+ HeLa cells (1×10^5 TZM-bl). Infectivity was scored using the Galacton-Star enzymatic galactosidase activity assay, and infectivity quantified by relative […] units (R.F.U).\nPlasmids: Laboratory-adapted provirus NL4.3, and the CypA-independent NL4.3 CAi2 were kindly provided by Akio Adachi (Department of Virology, Institute of Health Biosciences, The University of Tokushima Graduate School, JAPAN). Mutant R9G89V was a gift from P. Gallay (TSR1) as were NL4.3-GFP and SIV-GFP (originally Dana Gabuzda, Dana Farber Cancer Institute). NL4.3 A92E was kindly provided by W. Phares (Genetics Unit, Novartis Forschungsinstitut, Vienna, Austria). R9Δgp160 plasmid clone was kindly provided by C. Aiken (Vanderbilt Medical Center). VSV-G (CMV-VSV-G) was kindly provided by D. Trono (École Polytechnique Fédérale de Lausanne). Both bMLV-GFP and nMLV-GFP in the form of pCIG3-N, pCIG3-B as well as pCNCG were kindly provided by J. Stoye (National Institute for Medical Research, UK). Isomerase mutant Pin1 (pFLAG-Pin1R68,69A) and WW-domain mutant Pin1 (pFLAG-Pin1 W34A) were constructed by site-directed mutagenesis. Pseudotyping experiments were performed using DNA constructs encoding the VSV-G generously provided by D. Trono. Human Pin1 was cloned into pFLAG (Sigma-Aldrich) making pFLAG-Pin1. Viruses were produced by transfection of 293T cells using either GeneJuice (Novagen) or calcium phosphate. […] All viruses were harvested 24-48 hours post-transfection and filtered (0.2-μM filter, Steriflip Millipore). HIV-1 viruses were normalized by p24 ELISA (Alliance HIV-1 p24 Antigen ELISA Kit, Perkin Elmer), and/or were normalized via the EnzChek® Reverse Transcriptase Assay Kit (E-22064) (Molecular Probes).\nInfection assays for retrovirus: Single-round infections: CD4^+ TZM-bl 100,000 cells/well/mL were seeded onto 24-well plates 24 hours prior to infection. These cells were infected in quadruplicate to 24-well plates. Infectivity was scored using an enzymatic galactosidase activity assay. Specifically, infected TZM-bl cells were washed and lysed, and 20 μl of lysate was transferred to a 96-well plate for detecting β-galactosidase activity. 100 μl of reaction buffer Galacton-Star substrate (Applied Biosystems, Bedford, Mass.), diluted 1:50, was added to 20 μl of lysate, and the light emission was measured over 1 second in a microplate luminometer after 30 minutes incubation. For human PBMC infections, cells were exposed to 10 ng of wild-type virus for 6 hours, washed, and split into two flasks: one with 10 μM PiB added on day 0 and 3, and one without PiB. Replication was monitored by p24 ELISA. For measuring infectivity of GFP-virus, 50,000 TZMb1, sMAGI, OMK, Vero, BSC-1 and CV-1 cells/well/mL were seeded onto 6-well plates respectively 24 hours prior to infection. Viruses were used to infect in duplicate wells, incubated for 48 hours, washed with PBS, trypsinized, fixed in 1% formaldehyde and subsequently analyzed by fluorescence-activated cell sorting (FACS) for percentage cells infected.\nTo examine a potential role for Pin1 in HIV-1 replication we used two inhibitors of Pin1: juglone and PiB. […] 293T cells were transfected with a proviral construct encoding wild-type HIV-1 in the presence or absence of PiB or juglone."}},
  "note": "“Also recorded” adds a separate entry of the source.",
  "data": [
    {"smiles": "O=C1c2ccccc2CN1C1CCN(CCC(c2ccccc2)c2ccccc2)CC1", "note": "[BMS-200150]", "values": [
      {"measurement": "infectious HCV in cell supernatants (infectivity titer)", "setting": "HCV", "result": "virtual absence of particles"}
    ]},
    {"smiles": "CN1C(=O)c2ccc3c4c(ccc(c24)C1=O)C(=O)N(C)C3=O", "note": "[PiA, 2,7-dimethylbenzo[lmn][3,8]phenanthroline-1,3,6,8 (2H,7H)-tetrone]", "values": [
      {"measurement": "inhibition of the PPIase activity of Pin1", "setting": "Pin1 PPIase", "result": "potently inhibit"}
    ]},
    {"smiles": "CCOC(=O)CN1C(=O)c2ccc3c4ccc5c6c(ccc(c7ccc(c2c37)C1=O)c64)C(=O)N(CC(=O)OCC)C5=O", "note": "[PiJ, diethyl-1,3,8,10-tetrahydro-1,3,8,10-tetraoxoanthra[2,1,9-def:6,5,10-d′e′f′]diisoquinoline-2,9-diacetate]", "values": [
      {"measurement": "inhibition of the PPIase activity of Pin1", "setting": "Pin1 PPIase", "result": "potently inhibit"}
    ]},
    {"smiles": "O=C1C=CC(=O)c2c(O)cccc21", "note": "[juglone, 5-hydroxy-1,4-naphthoquinone]", "values": [
      {"measurement": "viral production (HIV-1 capsid in viral supernatants by p24 ELISA)", "setting": "HIV-1 [1]", "result": "Neither inhibitor influences viral production; also recorded: do not alter viral production"},
      {"measurement": "inhibition of other PPIase families (CypA, FKBP)", "setting": "[2]", "result": "do not inhibit; also recorded: not affected"},
      {"measurement": "inactivation of E. coli parvulin", "setting": "E. coli PPIase, parvulin", "result": "inactivates"},
      {"measurement": "boost of infectivity", "setting": "HIV-1 [3]", "result": 2, "unit": "fold"}
    ]}
  ]
}
